Measured values: ChEMBL document CHEMBL1781988, “Quinolizidinyl derivatives of bi- and tricyclic systems as potent inhibitors of acetyl- and butyrylcholinesterase with potential in Alzheimer's disease” (Eur J Med Chem, 2011)

Columns and labels:
[1] = target: Cholinesterase (Equus caballus, UniProt P81908)
Description: Inhibition of Equine serum BChE using butyrylthiocholine iodide as a substrate after 20 mins by Ellman's assay

[2] = target: T1, Acetylcholinesterase (Homo sapiens, UniProt P22303)
Description: Inhibition of human plasma AChE

[3] = target: T1, Acetylcholinesterase; remark: listed apart in the source
Description: Inhibition of human erythrocytes AChE

[4] = target: Cholinesterase (Homo sapiens, UniProt P06276)
Sequence of Cholinesterase (Homo sapiens, UniProt P06276) (P06276 whole entry, looked up): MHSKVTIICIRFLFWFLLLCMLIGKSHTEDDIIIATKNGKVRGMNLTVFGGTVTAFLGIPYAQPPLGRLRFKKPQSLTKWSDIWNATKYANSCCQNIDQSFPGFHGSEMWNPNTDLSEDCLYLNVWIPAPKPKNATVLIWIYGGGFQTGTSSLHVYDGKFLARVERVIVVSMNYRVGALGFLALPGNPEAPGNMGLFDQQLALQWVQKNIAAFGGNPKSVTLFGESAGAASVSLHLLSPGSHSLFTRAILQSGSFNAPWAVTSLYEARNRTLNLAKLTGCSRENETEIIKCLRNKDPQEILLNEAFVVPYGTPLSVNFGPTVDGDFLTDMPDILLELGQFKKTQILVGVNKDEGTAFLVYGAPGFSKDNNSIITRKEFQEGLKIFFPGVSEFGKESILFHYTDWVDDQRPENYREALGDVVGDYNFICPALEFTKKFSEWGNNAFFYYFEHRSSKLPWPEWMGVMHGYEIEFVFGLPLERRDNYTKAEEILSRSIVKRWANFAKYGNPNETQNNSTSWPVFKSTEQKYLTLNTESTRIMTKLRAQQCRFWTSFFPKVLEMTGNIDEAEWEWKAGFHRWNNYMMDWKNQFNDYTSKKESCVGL
Description: Inhibition of human plasma BChE

[5] = Selectivity index, ratio of IC50 for bovine erythrocyte AChE to IC50 for Equine serum BChE
[6] = target: T2, Acetylcholinesterase (Bos taurus, UniProt P23795)
T2 sequence (P23795 whole entry): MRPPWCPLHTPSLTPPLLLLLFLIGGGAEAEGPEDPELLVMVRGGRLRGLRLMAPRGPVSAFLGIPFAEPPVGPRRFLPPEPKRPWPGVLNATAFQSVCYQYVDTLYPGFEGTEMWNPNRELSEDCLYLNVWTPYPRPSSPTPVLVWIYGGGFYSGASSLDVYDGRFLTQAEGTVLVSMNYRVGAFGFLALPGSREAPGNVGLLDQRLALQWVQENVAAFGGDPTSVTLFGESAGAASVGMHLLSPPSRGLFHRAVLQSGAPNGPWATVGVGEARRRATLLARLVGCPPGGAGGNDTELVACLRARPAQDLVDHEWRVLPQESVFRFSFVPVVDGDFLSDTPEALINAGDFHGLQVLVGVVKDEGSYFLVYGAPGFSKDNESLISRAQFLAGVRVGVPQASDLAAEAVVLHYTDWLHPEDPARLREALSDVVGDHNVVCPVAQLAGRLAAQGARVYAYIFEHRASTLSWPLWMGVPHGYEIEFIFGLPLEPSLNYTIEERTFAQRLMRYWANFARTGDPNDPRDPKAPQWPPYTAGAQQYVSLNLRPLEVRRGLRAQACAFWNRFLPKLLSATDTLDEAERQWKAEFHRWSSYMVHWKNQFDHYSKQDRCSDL
Description: Inhibition of bovine erythrocyte AChE using acetylthiocholine iodide as a substrate after 20 mins by Ellman's assay

[7] = target: Cholinesterase (Equus caballus) (UniProt P81908); experiment: Inhibition of Equine serum BChE using butyrylthiocholine iodide as a substrate at 10 uM after 20 mins by Ellman's assay
Sequence of Cholinesterase (Equus caballus) (P81908 whole entry): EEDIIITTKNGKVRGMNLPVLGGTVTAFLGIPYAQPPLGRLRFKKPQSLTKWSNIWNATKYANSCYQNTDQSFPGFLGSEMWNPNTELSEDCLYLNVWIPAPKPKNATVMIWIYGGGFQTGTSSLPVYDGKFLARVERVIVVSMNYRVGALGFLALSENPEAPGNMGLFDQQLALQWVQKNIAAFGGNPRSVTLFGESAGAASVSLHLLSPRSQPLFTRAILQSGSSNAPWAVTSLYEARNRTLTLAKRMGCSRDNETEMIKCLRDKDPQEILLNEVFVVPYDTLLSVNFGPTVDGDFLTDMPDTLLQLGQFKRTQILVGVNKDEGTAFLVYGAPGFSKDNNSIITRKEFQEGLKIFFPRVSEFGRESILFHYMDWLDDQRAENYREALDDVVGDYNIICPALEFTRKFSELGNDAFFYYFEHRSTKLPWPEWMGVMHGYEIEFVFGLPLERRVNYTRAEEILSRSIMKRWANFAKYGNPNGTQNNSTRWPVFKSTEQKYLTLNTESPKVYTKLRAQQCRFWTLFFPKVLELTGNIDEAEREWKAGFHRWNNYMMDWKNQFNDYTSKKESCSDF

[8] = target: Muscarinic acetylcholine receptor; experiment: Inhibition of muscarinic receptor in rat brain synaptosomes; type: subcellular

Sequence of Cholinesterase (Equus caballus, UniProt P81908) (P81908 whole entry): as above
T1 sequence (P22303 whole entry): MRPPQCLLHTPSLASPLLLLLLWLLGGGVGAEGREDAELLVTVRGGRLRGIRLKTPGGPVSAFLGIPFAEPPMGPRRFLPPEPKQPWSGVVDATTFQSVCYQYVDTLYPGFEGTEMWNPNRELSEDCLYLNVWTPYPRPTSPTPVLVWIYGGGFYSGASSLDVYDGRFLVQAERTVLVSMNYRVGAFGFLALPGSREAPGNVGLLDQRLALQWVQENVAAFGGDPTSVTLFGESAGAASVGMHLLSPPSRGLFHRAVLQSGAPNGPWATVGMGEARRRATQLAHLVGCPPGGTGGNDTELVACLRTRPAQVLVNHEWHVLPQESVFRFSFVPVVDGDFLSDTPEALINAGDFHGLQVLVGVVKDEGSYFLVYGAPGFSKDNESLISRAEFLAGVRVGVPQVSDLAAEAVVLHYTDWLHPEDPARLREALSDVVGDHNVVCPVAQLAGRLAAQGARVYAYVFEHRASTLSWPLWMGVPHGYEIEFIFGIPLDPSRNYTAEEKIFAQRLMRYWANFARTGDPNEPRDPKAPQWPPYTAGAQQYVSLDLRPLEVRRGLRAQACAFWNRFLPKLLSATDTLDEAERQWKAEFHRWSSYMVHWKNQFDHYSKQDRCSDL

| SMILES | IC50 [1] | IC50 [6] | also measured |
| --- | --- | --- | --- |
| c1ccc2c(c1)[Se]c1ccccc1N2C[C@@H]1CCCN2CCCC[C@H]12 | 1100 nM | – | – |
| CN(C)CC(C)(C)c1cccc(OC(=O)NCCCCN2CCOCC2)c1 | – | – | IC50 [2]: 100000 nM; IC50 [3]: 100000 nM; IC50 [4]: 9 nM |
| C(=C1c2ccccc2Sc2ccccc21)[C@@H]1CCCN2CCCC[C@H]12 | 930 nM | – | – |
| CN1CCCC(CC2c3ccccc3Sc3ccccc32)C1 (stereo unspecified) [METHIXENE] | 1600 nM | – | – |
| N#Cc1ccc2c(c1)N(CCCN1CCC(O)CC1)c1ccccc1S2 [PERICIAZINE] | 230 nM | 7000 nM | Ratio IC50 [5]: 30 |
| O=C(CCCCSC[C@@H]1CCCN2CCCC[C@H]12)N1c2ccccc2Sc2ccccc21 | 890 nM | 5700 nM | Ratio IC50 [5]: 6.4 |
| c1ccc2c(c1)c1ccccc1n2C[C@@H]1CCCN2CCCC[C@H]12 | 2000 nM | – | – |
| C1=Cc2ccccc2N(C[C@@H]2CCCN3CCCC[C@H]23)c2ccccc21 | 2200 nM | 8300 nM | Ratio IC50 [5]: 3.8 |
| O=c1ccc2cc(OCCCSC[C@@H]3CCCN4CCCC[C@H]34)ccc2o1 | 5400 nM | 5400 nM | Ratio IC50 [5]: 0.06 |
| c1ccc2c(c1)-c1ccccc1C2C[C@@H]1CCCN2CCCC[C@H]12 | 630 nM | – | – |
| c1ccc(C(SC[C@@H]2CCCN3CCCC[C@H]23)c2ccccc2)cc1 | 3300 nM | – | – |
| O=C(C[C@H]1CCCN2CCCC[C@H]12)N1c2ccccc2Sc2ccccc21 | 4800 nM | – | – |
| O=C(CSC[C@@H]1CCCN2CCCC[C@H]12)N1c2ccccc2Sc2ccccc21 | 430 nM | – | – |
| O=C1Nc2cccnc2N(CSC[C@@H]2CCCN3CCCC[C@H]23)c2ccccc21 | – | – | inhibition [7]: 34% |
| C(=C1c2ccccc2CCc2ccccc21)[C@@H]1CCCN2CCCC[C@H]12 | 4200 nM | – | – |
| c1ccc2c(c1)Sc1ccccc1N2C[C@@H]1CCCN2CCCC[C@H]12 [LUPINYLPHENOTHIAZINE] | 2000 nM | – | IC50 [8]: 100 nM |
| O=c1ccc2cc(OCCCNC[C@@H]3CCCN4CCCC[C@H]34)ccc2o1 | – | 6600 nM | inhibition [7]: 40% |
| FC(F)(F)c1ccc2c(c1)N(C[C@@H]1CCCN3CCCC[C@H]13)c1ccccc1S2 | 4000 nM | – | – |
| c1ccc2c(c1)[Se]c1ccccc1N2C[C@H]1CCCN2CCCC[C@H]12 | 870 nM | – | – |
| CCN(CC)C(C)C(=O)N1c2ccccc2Sc2ccccc21 (stereo unspecified) | 840 nM | – | – |
| COc1ccc2c(c1)N(C(=O)CSC[C@@H]1CCCN3CCCC[C@H]13)c1ccccc1S2 | 1200 nM | – | – |
| CC(C)c1ccc(NC(=O)Oc2ccc3c(c2)[C@]2(C)CCN(CCc4ccccc4)[C@@H]2N3C)cc1 | – | – | IC50 [2]: > 30000 nM; IC50 [3]: > 30000 nM; IC50 [4]: 6 nM |
| O=C(CCCSC[C@@H]1CCCN2CCCC[C@H]12)N1c2ccccc2Sc2ccccc21 | 740 nM | 6800 nM | Ratio IC50 [5]: 9.2 |
| c1ccc2c(c1)Sc1ccccc1N2C1CN2CCC1CC2 (stereo unspecified) | 3000 nM | – | IC50 [8]: 100 nM |
| O=C1Nc2cccnc2N(C[C@@H]2CCCN3CCCC[C@H]23)c2ccccc21 | – | – | inhibition [7]: 28% |

| SMILES | IC50 [1] | IC50 [6] | also measured |
| --- | --- | --- | --- |
| O=C(CCSC[C@@H]1CCCN2CCCC[C@H]12)N1c2ccccc2Sc2ccccc21 | 750 nM | – | – |
| O=C(C[C@@H]1CCCN2CCCC[C@H]12)N1c2ccccc2Sc2ccccc21 [HOMOLUPINANOYLPHENOTHIAZINE] | 3000 nM | – | – |
| COc1ccc2nc3cc(Cl)ccc3c(NC[C@@H]3CCCN4CCCC[C@H]34)c2c1 | 870 nM | 7300 nM | Ratio IC50 [5]: 8.4 |
| c1ccc2c(c1)Oc1ccccc1N2C[C@@H]1CCCN2CCCC[C@H]12 | 2200 nM | – | – |
| c1ccc2c(c1)Sc1ccccc1C2C[C@@H]1CCCN2CCCC[C@H]12 | 150 nM | 7000 nM | IC50 [8]: 100 nM; Ratio IC50 [5]: 47 |
| c1ccc2c(c1)CCc1ccccc1N2C[C@@H]1CCCN2CCCC[C@H]12 | 2200 nM | – | – |
| C1=Cc2ccccc2C(=C[C@@H]2CCCN3CCCC[C@H]23)c2ccccc21 | 2000 nM | 8300 nM | Ratio IC50 [5]: 4.1 |
| c1ccc2c(c1)CCc1ccccc1N2CSC[C@@H]1CCCN2CCCC[C@H]12 | 860 nM | – | – |
| c1ccc2c(c1)Cc1ccccc1N2C[C@@H]1CCCN2CCCC[C@H]12 | 1400 nM | – | – |
| O=c1ccc2cc(OCCCCSC[C@@H]3CCCN4CCCC[C@H]34)ccc2o1 | 4300 nM | 1200 nM | Ratio IC50 [5]: 0.28 |
| c1ccc2c(c1)-c1ccccc1C2C[C@H]1CCCN2CCCC[C@H]12 | 1100 nM | – | – |
| COc1ccc2nc3cc(Cl)ccc3c(SC[C@@H]3CCCN4CCCC[C@H]34)c2c1 | 4700 nM | – | – |
| CCCCCCCNC(=O)Oc1ccc2c(c1)[C@]1(C)CCN(C)[C@@H]1N2C [EPTASTIGMINE] | – | – | IC50 [2]: 22000 nM |
| c1ccc(C(C[C@@H]2CCCN3CCCC[C@H]23)c2ccccc2)cc1 | 5500 nM | 6700 nM | Ratio IC50 [5]: 1.2 |
| C[N+]12CCCC[C@@H]1[C@H](CC1c3ccccc3Sc3ccccc31)CCC2 (stereo partly specified) | 410 nM | – | – |
| COc1ccc2nc3cc(Cl)ccc3c(NCCCSC[C@@H]3CCCN4CCCC[C@H]34)c2c1 | 690 nM | 220 nM | Ratio IC50 [5]: 0.32 |
| OC1(C[C@@H]2CCCN3CCCC[C@H]23)c2ccccc2Sc2ccccc21 | 950 nM | – | – |
| C[N+]12CCCC[C@@H]1[C@H](CN1c3ccccc3Sc3ccccc31)CCC2 (stereo partly specified) | 510 nM | – | – |
| C(=C(c1ccccc1)c1ccccc1)[C@@H]1CCCN2CCCC[C@H]12 | 3800 nM | – | – |
| O=c1ccc2cc(OCCCCCSC[C@@H]3CCCN4CCCC[C@H]34)ccc2o1 | 5800 nM | 680 nM | Ratio IC50 [5]: 0.12 |
| CC(SC[C@@H]1CCCN2CCCC[C@H]12)C(=O)N1c2ccccc2Sc2ccccc21 (stereo partly specified) | 470 nM | – | – |
| CCN(CC)C(C)CN1c2ccccc2Sc2ccccc21 (stereo unspecified) [ETHOPROPAZINE] | 720 nM | – | IC50 [4]: 300 nM |
| COc1ccc2nc3cc(Cl)ccc3c(NCCSC[C@@H]3CCCN4CCCC[C@H]34)c2c1 | 340 nM | 840 nM | Ratio IC50 [5]: 2.5 |
| c1ccc(N(C[C@@H]2CCCN3CCCC[C@H]23)c2ccccc2)cc1 | 8100 nM | 8900 nM | Ratio IC50 [5]: 1.1 |
